Assay results as given in EPA's ToxValDB 9.5.

Test system: Rattus norvegicus
Settings: oral
[1] = short-term, duration: 28 days, gavage, F, Sprague-Dawley, Food Consumption: decrease + Hematology: RBC decrease, Hct decrease1000 Hgb decrease1000 Plt increase, PT increase, APTT increase, Ret …
[2] = short-term, duration: 28 days, gavage, M, Sprague-Dawley, Food Consumption: decrease + Hematology: RBC decrease, Hct decrease1000 Hgb decrease1000 Plt increase, PT increase, APTT increase, Ret …
[3] = subchronic, gavage, M, Sprague-Dawley, Clinical Observation: Salivation + Urinalysis: Tubular epithelial cell in sediment + Hematology: PT increase, APTT increase + Blood …
[4] = subchronic, gavage, M, Sprague-Dawley, Deaths + Clinical Observation: Salivation + Body Weight Changes: Body weight gain decrease + Food Consumption: decrease + Urinalysis: Brown …

Compound: O=C1c2ccccc2-c2cccc3cccc1c23 [Benz[de]anthracen-7-one]
- LOAEL [1]: 60 mg/kg-day
- LOEL [1]: 60 mg/kg-day
- NOAEL [1]: 15 mg/kg-day
- NOEL [1]: 15 mg/kg-day
- LOAEL [2]: 60 mg/kg-day
- LOEL [2]: 60 mg/kg-day
- NOAEL [2]: 15 mg/kg-day
- NOEL [2]: 15 mg/kg-day

Compound: Nc1ccc(Cc2ccc(N)c(Cl)c2Cl)c(Cl)c1Cl [Benzenamine, 4,4'-methylenebis(2,3-dichloro-]
- NOEL (short-term, duration: 28 days, gavage, M/F, Sprague-Dawley, Deaths + Hematology: WBC increase + Blood Chemistry: Alpha 1-globirin, level decrease, K increasemg/kg/ , TG increase/ + Relative Organ …): 100 mg/kg-day

Compound: ClCc1ccc(Cl)c(Cl)c1 [Benzene, 1,2-dichloro-4-(chloromethyl)-]
- NOEL (short-term, duration: 28 days, gavage, M/F, CD(SD), Deaths + Urinalysis: Volume, urinary cast increase, Epithelial cell increase + Absolute Organ Weight: Kidney increase, Liver increase + …): < 10 mg/kg-day

Compound: FC(F)(F)c1cccc(C(F)(F)F)c1 [Benzene, 1,3-bis(trifluoromethyl)-]
- NOAEL [3]: 150 mg/kg-day
- NOEL [3]: < 40 mg/kg-day

Compound: Cc1cc(Cl)ccc1Cl [Benzene, 1,4-dichloro-2-methyl-]
- NOEL (subchronic, gavage, M, Sprague-Dawley, Clinical Observation: White turbid urine Salivation + Absolute Organ Weight: Kidney increase + Relative Organ Weight: Kidney increase, R): 30 mg/kg-day

Compound: O=C(OOC(=O)c1ccccc1)c1ccccc1 [Benzoyl peroxide]
- NOAEL (short-term, duration: 28 days, gavage, M, Sprague-Dawley, Absolute Organ Weight: Testes decrease + Relative Organ Weight: Testes decrease, Epididymis decrease + Histopathology: Testes: Degeneration): 500 mg/kg-day

Compound: CCCCCCCC[N+](C)(C)Cc1ccccc1.[Cl-] [Benzyldimethyloctylammonium chloride]
- NOAEL [4]: 15 mg/kg-day
- NOEL [4]: 15 mg/kg-day

Compound: C[N+](C)(C)CC(=O)[O-] [Betaine]
- NOEL (subchronic, diet, M/F, Sprague-Dawley, Food Consumption: decrease + Urinalysis: Urine volume increase,pH decrease + Hematology: Plt increase, Fib increase + Blood Chemistry: Alp …): < 1%

Compound: COc1ccc(CCNCC(O)COc2cccc(C)c2)cc1OC.Cl (stereo not drawn) [Bevantolol hydrochloride]
- NOEL (chronic, duration: 91 days, gavage, M/F, CD, Deaths + Clinical Observation: Salivation Sedation Ptosis Prone position Lateral position Crouching position Convulsion Incontinence of …): 60 mg/kg-day

Compound: ClC(COCC(Cl)C(Cl)(Cl)Cl)C(Cl)(Cl)Cl (stereo not drawn) [Bis(2,3,3,3-tetrachloropropyl) ether]
- NOEL (subchronic, gavage, M/F, Wistar, Clinical Observation: Lethargy + Body Weight Changes: decrease + Urinalysis: Ketone body increase, TP increase + Hematology: Hgb decrease, …): 40 mg/kg-day

Compound: CCC[CH2][Sn]([Cl])([Cl])[Cl] [Butyltin trichloride]
- NOAEL (subchronic, duration: 13 weeks, diet, M/F, Wistar, Urinalysis: pH increase + Hematology: WBC increase, Lymph increase + Blood Chemistry: ALP increase, ASAT increase, GGT increase, A/G …): 144 mg/kg-day

Compound: COc1cc(-c2ccc(N=Nc3c(S(=O)(=O)[O-])cc4cc(S(=O)(=O)[O-])cc(N)c4c3O)c(OC)c2)ccc1N=Nc1c(S(=O)(=O)[O-])cc2cc(S(=O)(=O)[O-])cc(N)c2c1O.[Na+].[Na+].[Na+].[Na+] [C.I. Direct Blue 15]
- NOEL (subchronic, duration: 13 weeks, drinking water, F, Fischer 344, Deaths + Body Weight Changes: decrease + Water Consumption: decrease + Absolute Organ Weight: Kidney increase + Relative Organ Weight: …): 380 mg/kg-day
- NOEL (subchronic, duration: 13 weeks, drinking water, M, Fischer 344, Deaths + Body Weight Changes: decrease + Water Consumption: decrease + Absolute Organ Weight: Kidney increase + Relative Organ Weight: …): < 190 mg/kg-day

Compound: Nc1cc(S(=O)(=O)[O-])cc2cc(S(=O)(=O)[O-])c(N=Nc3ccc(-c4ccc(N=Nc5c(S(=O)(=O)[O-])cc6cc(S(=O)(=O)[O-])cc(N)c6c5[O-])c([O-])c4)cc3[O-])c([O-])c12.[Cu+2].[Cu+2].[Na+].[Na+].[Na+].[Na+] [C.I. Direct Blue 218]
- NOEL (subchronic, duration: 13 weeks, diet, F, Fischer 344, Body Weight Changes: decrease + Food Consumption: decrease + Hematology: Hct decrease, Hgb decrease + Blood Chemistry: ALT increase, , SDH …): 200 mg/kg-day
- NOEL (subchronic, duration: 13 weeks, diet, M/F, Fischer 344, Body Weight Changes: decrease + Food Consumption: decrease + Hematology: Hct decrease, Hgb decrease + Blood Chemistry: ALT increase, , SDH …): < 288 mg/kg-day

Compound: O=C(O)C1C(C(=O)O)C2(Cl)C(Cl)=C(Cl)C1(Cl)C2(Cl)Cl (stereo not drawn) [Chlorendic acid]
- NOEL (subchronic, duration: 13 weeks, diet, M/F, Fischer 344, Body Weight Changes: decrease + Histopathology: Liver-Cytomegaly Liver/bile duct -Hyperplasia Liver-Mitotic alteration): < 59.5 mg/kg-day

Compound: [Cu+2].[O-]n1ccccc1=S.[O-]n1ccccc1=S [Copper Omadine]
- NOEL (short-term, duration: 28 days, gavage, M/F, Deaths + Clinical Observation: Ataxic gait Dragging of hindlimbs Emaciation + Body Weight Changes: decrease + Food Consumption: decrease + …): 2.5 mg/kg-day

Compound: CC=CC(=O)N(CC)c1ccccc1C [Crotamiton]
- NOEL (short-term, duration: 28 days, gavage, F, Sprague-Dawley, Clinical Observation: Salivation + Body Weight Changes: Weight gain decrease, increase + Food Consumption: increase + Urinalysis: Occult …): 60 mg/kg-day
- NOEL (short-term, duration: 28 days, gavage, M, Sprague-Dawley, Clinical Observation: Salivation + Body Weight Changes: Weight gain decrease, increase + Food Consumption: increase + Urinalysis: Occult …): 12 mg/kg-day
